Source: US4093720A, “Novel-17-spirosultines their corresponding hydroxy acids and compositions thereof” (Roussel Uclaf, priority 1976, dated 1978)

How the values were obtained:
[1] = test system: activity of 1 μg/kg of aldosterone monoacetate; assay: Antialdosterone activity in surrenalectomized rats; format: in vivo; settings: male Sprague-Dawley surrenalectomized rats; oral dose 5 mg/kg; 1 μg/kg aldosterone monoacetate s.c.; 4 hours urine collection
Experimental: Male rats of the Sprague-Dawley strain weighing about 180 g were surrenalectomized and at that moment, the rats received with drinking water a physiological serum. […] At the end of 47 hours, the rats received orally either the B isomer of (17R) 6β, 7β-methylene-2'-oxidospiro-(Δ^4 -androstene-17,5'-[1',2']-oxathiolane)-3-one (product A), the B isomer of (17R) 6α, 7α-methylene-2'-oxidospiro-(Δ^4 -androstene-17,5'-[1',2']-oxathiolane)-3-one (product B) or the B isomer of (17R) 7α-methyl-2'-oxidospiro-(Δ^4 -androstene-17,5'-[1',2']-oxathiolane)-3-one (product C) in the form of a solution or suspension in 0.25% carboxymethylcellulose. One hour after the said oral administration, the animals received a hydrosaline overdose by intraperitoned administration of 5 ml of a […] physiological serum per 100 g of body weight and 1 μg/kg of a 2.5% alcoholic solution of aldosterone monoacetate by subcutaneous administration. The animals were placed in diuresis cages without food or drink for 4 hours and at the end of 4 hours, a forced miction was caused by pressure on the bladder. The volume of urine was brought to 50 ml and the amount of sodium and potassium was determined with an autoanalyser.

[2] = target: T1, androgen receptors (Rattus norvegicus, UniProt P15207); assay: Affinity for androgenic receptors (hormonal receptor test, rat prostate cytosol, tritiated product R); format: binding, rats; settings: for affinity for androgen receptors (in words): conclusion from Table II; for RLA (relative affinity = 100 × CT/CX): prostate cytosol of castrated male rats, tritiated 17α-methyl-Δ4,9,11-estratriene-17β-ol-3-one, 0° C, 2 hours, testosterone = 100
T1 construct: the prostate was removed from male rats castrated 24 hours earlier and was homogenized in a buffer; from tissue; host or cells: prostate cytosol (105,000g supernatant) of male rats castrated 24 hours earlier
T1 sequence (P15207 1-902): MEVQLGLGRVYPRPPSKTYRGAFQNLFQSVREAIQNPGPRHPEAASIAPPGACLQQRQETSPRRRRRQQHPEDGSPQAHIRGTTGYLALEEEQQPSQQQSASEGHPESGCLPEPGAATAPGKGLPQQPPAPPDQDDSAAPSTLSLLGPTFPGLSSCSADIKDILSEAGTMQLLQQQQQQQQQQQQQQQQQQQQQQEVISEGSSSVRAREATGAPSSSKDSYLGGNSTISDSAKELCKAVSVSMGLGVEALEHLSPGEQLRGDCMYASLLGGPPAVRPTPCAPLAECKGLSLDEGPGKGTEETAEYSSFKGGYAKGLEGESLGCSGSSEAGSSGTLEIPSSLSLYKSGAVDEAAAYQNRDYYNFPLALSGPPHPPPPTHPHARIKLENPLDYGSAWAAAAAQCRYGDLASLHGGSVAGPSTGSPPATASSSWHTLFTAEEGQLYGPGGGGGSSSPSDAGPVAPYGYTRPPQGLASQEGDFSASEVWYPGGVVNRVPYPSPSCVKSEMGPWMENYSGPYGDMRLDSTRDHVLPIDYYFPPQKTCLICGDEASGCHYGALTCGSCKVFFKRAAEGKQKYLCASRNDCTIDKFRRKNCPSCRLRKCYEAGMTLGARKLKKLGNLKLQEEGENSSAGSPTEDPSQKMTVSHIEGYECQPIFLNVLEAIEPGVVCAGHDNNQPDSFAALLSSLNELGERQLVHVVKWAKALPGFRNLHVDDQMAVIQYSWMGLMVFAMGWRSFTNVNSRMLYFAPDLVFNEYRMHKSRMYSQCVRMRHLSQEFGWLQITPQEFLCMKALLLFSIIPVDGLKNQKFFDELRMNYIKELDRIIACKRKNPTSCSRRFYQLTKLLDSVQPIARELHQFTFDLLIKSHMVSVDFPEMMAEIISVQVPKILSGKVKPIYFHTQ
Experimental: The test used was the hormonal receptor test described by Raynaud et al [J. Ster. Biochem., Vol. 6 (1975), p. 615-622] in which the prostate was removed from male rats castrated 24 hours earlier and was homogenized in a buffer: 10 millimole tromethamine, saccharose 0.25M, HCl for pH of 7.4. The homogenate was centrifuged at 105,000g for one hour and the surnageant liquid or "cytosol" was then adjusted to obtain a dilution of 1/5 (weight/volume). […] At the end of 2 hours, the radioactivity of tritiated product tied to the receptor was determined by the adsorption technique of carbondextran (1.25% to 0.625%).
B/T max. is the percentage of tritiated product R bound when no product was added and B/T min. is the percentage of tritiated product R bound when the mazimum quantity of cold product R is added. The intersections of line I50 and the curves permit the determination of the CT and CX values.

Row | Compound | % inhibition of the activity of aldosterone monoacetate against the urinary sodium/potassium ratio [1] [%] | affinity for androgen receptors (in words) [2] | RLA (relative affinity = 100 × CT/CX) [2]
1 | C[C@]12CCC(=O)C=C1[C@H]1C[C@H]1[C@@H]1[C@@H]2CC[C@@]2(C)[C@H]1CC[C@@]21CCS(=O)O1 (single isomer, unassigned) [product B] | 19 |  | 
2 | C[C@@H]1CC2=CC(=O)CC[C@]2(C)[C@H]2CC[C@@]3(C)[C@@H](CC[C@@]34CCS(=O)O4)[C@H]12 (single isomer, unassigned) [product C] | 22 | little or no affinity | 3.6
3 | C[C@]12CCC(=O)C=C1[C@@H]1C[C@@H]1[C@@H]1[C@@H]2CC[C@@]2(C)[C@H]1CC[C@@]21CCS(=O)O1 (single isomer, unassigned) [product A] | 25 | little or no affinity | 0
